Laboratory results: ChEMBL document CHEMBL3779788, “Facile synthesis of 1,3-thiazolidin-4-ones as antitubercular agents” (Bioorg Med Chem Lett, 2016)
Values after ≈ are worked out from the molar mass of the structure shown.

Legend:
[1] = test system: Mycobacterium bovis BCG str. ATCC 35743; assay: Antitubercular activity against dormant Mycobacterium bovis BCG ATCC 35743 assessed as growth inhibition at 3 ug/mL by NR assay; format: functional
[2] = test system: Mycobacterium bovis BCG str. ATCC 35743; assay: Antitubercular activity against dormant Mycobacterium bovis BCG ATCC 35743 assessed as growth inhibition at 10 ug/mL by NR assay; format: functional
[3] = test system: Mycobacterium tuberculosis; assay: Antitubercular activity against dormant Mycobacterium tuberculosis H37Ra assessed as growth inhibition at 30 ug/mL by XTT reduction menadione assay; format: functional; details: read-out: GI
[4] = test system: Mycobacterium tuberculosis; assay: Antitubercular activity against dormant Mycobacterium tuberculosis H37Ra assessed as growth inhibition at 10 ug/mL by XTT reduction menadione assay; format: functional; details: read-out: GI
[5] = test system: Mycobacterium tuberculosis; assay: Antitubercular activity against dormant Mycobacterium tuberculosis H37Ra assessed as growth inhibition at 3 ug/mL by XTT reduction menadione assay; format: functional; details: read-out: GI
[6] = test system: Mycobacterium bovis BCG str. ATCC 35743; assay: Antitubercular activity against dormant Mycobacterium bovis BCG ATCC 35743 assessed as growth inhibition at 30 ug/mL by NR assay; format: functional
[7] = (§1) Antitubercular activity against dormant Mycobacterium bovis BCG ATCC 35743 by NR assay; format: functional, Mycobacterium bovis BCG str. ATCC 35743
[8] = test system: Mycobacterium bovis BCG str. ATCC 35743; assay: as §1; format: functional
[9] = test system: Mycobacterium tuberculosis; assay: Antitubercular activity against dormant Mycobacterium tuberculosis H37Ra by XTT reduction menadione assay; format: functional, organism-based
[10] = Cytotoxicity against human MCF7 cells at 30 ug/mL by MTT assay; format: cell-based; details: read-out: INH
[11] = Cytotoxicity against human MCF7 cells at 10 ug/mL by MTT assay; format: cell-based; details: read-out: INH
[12] = Cytotoxicity against human MCF7 cells at 3 ug/mL by MTT assay; format: cell-based; details: read-out: INH
[13] = Cytotoxicity against human A549 cells at 30 ug/mL by MTT assay; format: cell-based; details: read-out: INH
[14] = Cytotoxicity against human A549 cells at 10 ug/mL by MTT assay; format: cell-based; details: read-out: INH
[15] = Cytotoxicity against human A549 cells at 3 ug/mL by MTT assay; format: cell-based; details: read-out: INH
[16] = Cytotoxicity against human HCT116 cells at 30 ug/mL by MTT assay; format: cell-based, HCT-116; details: read-out: INH
[17] = Cytotoxicity against human HCT116 cells at 10 ug/mL by MTT assay; format: cell-based, HCT-116; details: read-out: INH
[18] = Cytotoxicity against human HCT116 cells at 3 ug/mL by MTT assay; format: cell-based, HCT-116; details: read-out: INH
[19] = Cytotoxicity against human HCT116 cells after 48 and 72 hrs by MTT assay; format: cell-based, HCT-116; details: for GI50 at 72 h: HCT116 cells; for GI90: hct-116, 72 h
[20] = (§2) Cytotoxicity against human A549 cells after 48 and 72 hrs by MTT assay; format: cell-based; details: A549 cells
A549 = assay: as §2; format: cell-based; details: a549, 72 h
[21] = (§3) Cytotoxicity against human MCF7 cells after 48 and 72 hrs by MTT assay; format: cell-based; details: MCF7 cells
MCF7 = assay: as §3; format: cell-based; details: mcf7, 72 h
Escherichia coli = assay: Antibacterial activity against Escherichia coli after 18 hrs by broth dilution method; format: functional, organism-based
Pseudomonas = assay: Antibacterial activity against Pseudomonas after 18 hrs by broth dilution method; format: functional, organism-based
Staphylococcus aureus = assay: Antibacterial activity against Staphylococcus aureus after 18 hrs by broth dilution method; format: functional, organism-based
Bacillus subtilis = assay: Antibacterial activity against Bacillus subtilis after 18 hrs by broth dilution method; format: functional, organism-based

Row | SMILES | growth inhibition (GI) [1] | growth inhibition (GI) [2] | inhibition of growth at 30 µg/mL [3] | inhibition of growth at 10 µg/mL [4] | inhibition of growth at 3 µg/mL [5] | growth inhibition (GI) [6] | IC50 [7] | IC90 [8] | IC50 [9] | IC90 [9] | cytotoxicity at 30 ug/mL [10] | cytotoxicity at 10 ug/mL [11] | cytotoxicity at 3 ug/mL [12] | cytotoxicity at 30 ug/mL [13] | cytotoxicity at 10 ug/mL [14] | cytotoxicity at 3 ug/mL [15] | cytotoxicity at 30 ug/mL [16] | cytotoxicity at 10 ug/mL [17] | cytotoxicity at 3 ug/mL [18] | GI50 at 72 h [19] | other results
1 | O=C1CSC(c2ccc(Cl)cc2)N1c1ccccc1 (stereo unspecified) | -0.5% | 15.9% | 82.1% | 76.8% | 34.3% | 45.6% | > 30 µg/mL | > 30 µg/mL | 5.6 µg/mL (≈ 19.3 µM) | > 30 µg/mL | 40.1% | 20.6% | -1.4% | -20.4% | 0% | -10.3% | 3.9% | 0% | -7.5% | > 100 µg/mL | GI90 [19]: > 100 µg/mL; GI50 at 72 h [20]: > 100 µg/mL; GI90 (A549): > 100 µg/mL; GI50 at 72 h [21]: > 100 µg/mL; GI90 (MCF7): > 100 µg/mL; IC50 (Escherichia coli): > 30 µg/mL; MIC (Escherichia coli): > 30 µg/mL; IC50 (Pseudomonas): > 30 µg/mL; MIC (Pseudomonas): > 30 µg/mL; IC50 (Staphylococcus aureus): > 30 µg/mL; MIC (Staphylococcus aureus): > 30 µg/mL; IC50 (Bacillus subtilis): > 30 µg/mL; MIC (Bacillus subtilis): > 30 µg/mL
2 | COc1ccc(N2C(=O)CSC2c2ccccc2)cc1 (stereo unspecified) | -0.1% | 30.2% | 91.4% | 86% | 65.4% | 71.9% | > 30 µg/mL | > 30 µg/mL | 2.2 µg/mL (≈ 7.71 µM) | 24 µg/mL (≈ 84.1 µM) | 15.4% | 8.9% | -10% | 4.4% | 0% | -0.1% | 10.2% | 7.2% | -6.1% | > 100 µg/mL | GI90 [19]: > 100 µg/mL; GI50 at 72 h [20]: > 100 µg/mL; GI90 (A549): > 100 µg/mL; GI50 at 72 h [21]: > 100 µg/mL; GI90 (MCF7): > 100 µg/mL; IC50 (Escherichia coli): > 30 µg/mL; MIC (Escherichia coli): > 30 µg/mL; IC50 (Pseudomonas): > 30 µg/mL; MIC (Pseudomonas): > 30 µg/mL; IC50 (Staphylococcus aureus): > 30 µg/mL; MIC (Staphylococcus aureus): > 30 µg/mL; IC50 (Bacillus subtilis): > 30 µg/mL; MIC (Bacillus subtilis): > 30 µg/mL
3 | O=C1CSC(c2ccc(F)cc2)N1c1ccccc1 (stereo unspecified) | -10.7% | 14.4% | 92.2% | 73.2% | 25.6% | 80.2% | 20.9 µg/mL (≈ 76.5 µM) | > 30 µg/mL | 6.8 µg/mL (≈ 24.9 µM) | 27.5 µg/mL (≈ 101 µM) | 33% | 10.8% | -4.1% | 0% | 0% | 0% | 23.5% | 14.6% | -0.5% | > 100 µg/mL | GI90 [19]: > 100 µg/mL; GI50 at 72 h [20]: > 100 µg/mL; GI90 (A549): > 100 µg/mL; GI50 at 72 h [21]: > 100 µg/mL; GI90 (MCF7): > 100 µg/mL; IC50 (Escherichia coli): > 30 µg/mL; MIC (Escherichia coli): > 30 µg/mL; IC50 (Pseudomonas): > 30 µg/mL; MIC (Pseudomonas): > 30 µg/mL; IC50 (Staphylococcus aureus): > 30 µg/mL; MIC (Staphylococcus aureus): > 30 µg/mL; IC50 (Bacillus subtilis): > 30 µg/mL; MIC (Bacillus subtilis): > 30 µg/mL
4 | CC(=O)O[C@H]1C(=O)[C@@]2(C)[C@H]([C@H](OC(=O)c3ccccc3)[C@]3(O)C[C@H](OC(=O)[C@H](O)[C@@H](NC(=O)c4ccccc4)c4ccccc4)C(C)=C1C3(C)C)[C@]1(OC(C)=O)CO[C@@H]1C[C@@H]2O [PACLITAXEL] | – | – | – | – | – | – | – | – | – | – | – | – | – | – | – | – | – | – | – | 5.21 µg/mL (≈ 6.1 µM) | GI90 [19]: 0.026 µg/mL (≈ 0.0304 µM); GI50 at 72 h [20]: 0.039 µg/mL (≈ 0.0457 µM); GI90 (A549): < 0.004 µg/mL; GI50 at 72 h [21]: 0.075 µg/mL (≈ 0.0878 µM); GI90 (MCF7): 0.0039 µg/mL (≈ 0.00457 µM)
5 | Cc1ccc(C2SCC(=O)N2c2ccccc2)cc1 (stereo unspecified) | 2% | 0.2% | 17.8% | 31% | 12% | 16.6% | > 30 µg/mL | > 30 µg/mL | > 30 µg/mL | > 30 µg/mL | 40.7% | 16.9% | 0% | 27.8% | -12.6% | -10.3% | -9.8% | -11.9% | -25.8% | – | –
6 | Cc1ccc(C2SCC(=O)N2c2ccc(C)cc2)cc1 (stereo unspecified) | -12.5% | -1.2% | -27.4% | -26.4% | -18.5% | -1.9% | > 30 µg/mL | > 30 µg/mL | > 30 µg/mL | > 30 µg/mL | 19.6% | 16.4% | -9.2% | -13.4% | 0% | 8.6% | 45% | 16.7% | 9.7% | – | –
7 | O=C1CSC(c2ccc([N+](=O)[O-])cc2)N1c1ccccc1 (stereo unspecified) | 17.8% | 12.5% | -8.8% | -30.4% | -17.1% | 14.4% | > 30 µg/mL | > 30 µg/mL | > 30 µg/mL | > 30 µg/mL | 52.6% | 49.9% | 47% | 8.8% | 6.7% | 0.3% | 29.3% | 9% | -11.5% | – | –
8 | O=C1CSC(c2ccc(F)cc2)N1c1ccc(Cl)cc1 (stereo unspecified) | -3.2% | -3.8% | 30.2% | -14.6% | 8.8% | -1.3% | > 30 µg/mL | > 30 µg/mL | > 30 µg/mL | > 30 µg/mL | 43.7% | 38.1% | 32.2% | 4.9% | 0% | -7% | 50.4% | 18.6% | 9.4% | – | –
